Data: patent publication US20250263412A1, “NON-HYDROXAMATE HDAC6 INHIBITORS AND RELATED METHODS OF USE” (The Regents of the University of Michigan, priority 2021, published 2025)

Legend:
[1] = tested on: wild-type DIO mice; assay: Diet-induced obesity study, daily intraperitoneal injections; type: in vivo, mouse
Method: (§1) Animals were housed at a 12 hours dark/light cycle, temperature and humidity controlled rooms. Mice were purchased from the Jackson LABoratory, except the HDAC6 global knockout (KO) mice, which were provided by Dr. Timothy A. Mckinsey (University of Colorado Anschutz Medical Campus, Aurora, CO, USA.). Mice were fed either regular chow or high fat diet (60 kcal % fat, Research Diets) to induce obesity (diet-induced obesity) and had free access to food and water unless specified. Body composition was analyzed with Bruker's minispec LF50 Body Composition Analyzer. Blood glucose was measured from tail vein by Contour blood glucose monitor system (Bayer). TubA (25 mg/kg body weight) or SE-7552 (50 mg/kg body weight) were administered within 1 hr before dark cycle daily by intraperitoneal (ip.) injections. For intraperitoneal injections, drugs or vehicle was injected at 25 uL volumes per animal. Mice and their food were measured daily or weekly to track body weight and food intake. Hematoxylin and eosin (H&E) staining of liver sections of diet-induced obese mice were done after one month of vehicle or TubA injections.

[2] = tested on: HDAC6 versus all other known HDAC isozymes; conditions: cited from earlier work
[3] = tested on: db/db mice; assay: Body weight study in db/db mice; type: in vivo, mouse; conditions: SE-7552 50 mg/kg, i.p., daily
Method: as §1

Compound | obesity (body weight change, FIG. 1e) ([1]; SE-7552 50 mg/kg, i.p., daily) | selectivity versus all other known HDAC isozymes [2] | weight loss (body weight change, FIG. 1f) [3] | diet-induced obesity (FIG. 2) ([1]; Tubastatin 25 mg/kg, daily i.p.)
CC(Nc1ncc(-c2nnc(C(F)F)o2)cn1)c1ccc(F)cc1 (stereo not shown) [SE7552] | effectively reduces obesity | About 1000 fold | ineffective at inducing weight loss | 
CN1CCc2c(c3ccccc3n2Cc2ccc(C(=O)NO)cc2)C1 [Tubastatin A] |  |  |  | Reverses Diet-Induced Obesity
